{
  "source": "patent US20250057813A1",
  "about": "“APOPTOSIS RELATED PROTEIN IN THE TGF-BETA SIGNALING PATHWAY (ARTS) MIMETIC COMPOUNDS, COMPOSITIONS, METHODS AND USES THEREOF IN INDUCTION OF APOPTOSIS” (Carmel-Haifa University Economic Corporation Ltd., priority 2022, published 2025)",
  "key": {"[1]": {"biological_target": "XIAP (Homo sapiens, UniProt P98170)", "sequence (P98170 whole entry)": "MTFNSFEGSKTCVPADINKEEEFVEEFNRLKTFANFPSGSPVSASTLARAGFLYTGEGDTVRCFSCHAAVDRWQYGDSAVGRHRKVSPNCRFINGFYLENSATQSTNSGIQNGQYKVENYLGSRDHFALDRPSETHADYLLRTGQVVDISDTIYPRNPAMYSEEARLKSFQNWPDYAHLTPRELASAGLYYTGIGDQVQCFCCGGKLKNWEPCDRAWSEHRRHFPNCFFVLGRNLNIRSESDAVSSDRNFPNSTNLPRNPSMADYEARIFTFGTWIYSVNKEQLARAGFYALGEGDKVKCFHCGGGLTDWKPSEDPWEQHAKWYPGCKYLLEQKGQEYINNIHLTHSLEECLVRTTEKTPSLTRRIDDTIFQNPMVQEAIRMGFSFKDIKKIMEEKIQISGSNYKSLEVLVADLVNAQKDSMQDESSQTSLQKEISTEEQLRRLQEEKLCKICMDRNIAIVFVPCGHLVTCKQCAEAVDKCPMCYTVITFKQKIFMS", "assay": "Nano-DSF binding assay (Crelux)", "settings": "binding curve, dose response"}, "[2]": {"tested_on": "HCT116 WT cells", "assay": "Western blot analysis of HCT116 WT cells", "type": "cell-based", "procedure": "Cells were lysed in whole-cell extract buffer [25 mM HEPES, pH 7.7, […], 1.5 mM MgCl2, 0.2 mM EDTA, 0.1% Triton X-100, 100 μg/ml phenylmethylsulfonyl fluoride (PMSF) and protease inhibitor cocktail (Roche, 1:100 dilution)] and placed on ice for 30 min (vortexing once after 15 min). After 30 minutes, the samples were centrifuged at 13,000×g for 10 minutes at 4° C. The supernatants containing total protein were measured for protein concentration using Bio-Rad Protein Assay Dye Reagent Concentrate Kit. 40 to […] was separated by sodium dodecyl sulfate-polyacrylamide gel electrophoresis (SDS-PAGE) (12% or 7.5%), followed by transfer to a nitrocellulose membrane. The membranes were blocked with 5% (w/v) non-fat dried skimmed milk powder in PBS supplemented with 0.05% Tween-20 (PBS-T) for 1 h at RT. Next, primary antibodies were added at 4° C. overnight or for 2 h at room temperature. Membranes were then incubated with secondary antibody for 1 h at RT and washed three times for 15 min each with PBS-T. Western Bright ECL (Advansta) was added to the membrane for 30-60 s and analyzed using Image Quant LAS-4000 (GE Healthcare Life Sciences) and Image Quant LAS-4000 software (GE Healthcare Life Sciences)."}, "[3]": {"tested_on": "p53 Ubiquitylation in HCT 116 XIAP KO cells", "assay": "In vivo ubiquitylation assay of p53", "type": "cell-based", "settings": "20 μM B3, XIAP KO cells", "procedure": "(§1) All cells were transiently transfected with a Ub-HA (ubiquitin-tagged with HA) construct and treated with a proteasome inhibitor (Bortezomib or MG-132, at 20 μM for 6 h). after 1 h of proteasome inhibitor incubation, B3 (20 μM) or DMSO was added to the medium for an additional 5 h. After 6 h of Bortezomib/MG-132 along with 5 h of B3 treatments, the cells were harvested and lysed using RIPA buffer (Tris-HCl pH 7.5 50 mM, NaCl 150 mM, NP-40 (Igepal) 0.3%) containing protease inhibitor cocktail (Complete, Roche), 100 µg/ml PMSF, 5 mM N-ethylmaleimide, and 5 mM iodoacetamide to preserve ubiquitin chains. Following 15 min of centrifugation (10,000×g, 4° C.), the supernatant was transferred into a clean Eppendorf tube. A ubiquitination assay using immunoprecipitation with anti-p53 antibody (CS2524) (endogenous p53 was pulled down) was performed as described above with 1:500 antibody per 1000 μg protein. Poly-ubiquitylated forms of p53 were detected using an anti-p53 antibody (DO-1, sc-126)."}, "[4]": {"tested_on": "p53 Ubiquitylation in HCT 116 WT", "assay": "In vivo ubiquitylation assay of p53", "type": "cell-based", "settings": "20 μM B3, 5 h, with proteasome inhibitor", "procedure": "as §1"}, "[5]": {"biological_target": "T1, XIAP-BIR3 (Homo sapiens, UniProt P98170)", "T1 construct": "fused on or other part: NT650 fluorescent dye attached covalently by maleimide coupling; the protein is otherwise untagged", "T1 sequence (P98170 241-356 limits assumed)": "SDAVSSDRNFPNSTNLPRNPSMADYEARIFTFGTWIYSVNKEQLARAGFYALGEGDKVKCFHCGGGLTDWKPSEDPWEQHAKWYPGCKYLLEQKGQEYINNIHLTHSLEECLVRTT", "assay": "MST binding of B3 to fluorescently labelled recombinant XIAP", "settings": "spread printed +/−11 μM, read-out: Kd, direct binding to XIAP-BIR3", "procedure": "(§2) Microscale thermophoresis (MST) binding assays were performed by CreLux, a WuXi AppTech company in Germany, using recombinant ARTS, XIAP, Bcl-2 and cIAP1 proteins. Specifically, for performing experiments with untagged XIAP, a fluorescent label (NT650) was covalently attached to the protein (Maleimide coupling). The labelling was performed in a buffer containing 50 mM HEPES pH 7.0, 150 mM NaCl and 0.005% Tween-20.\nas §2, with “ARTS” for “ARTS, XIAP, Bcl-2”, “XIAP” for “cIAP1”, “labeling” for “labelling”, “NaCl,” for “NaCl”, “Tween-20. A detailed description is provided in the Supplementary Materials and methods.” for “Tween-20.”"}, "[6]": {"biological_target": "T2, binding between ARTS and p53 (Mus musculus, UniProt P02340)", "T2 construct": "expressed in transfected cells; host or cells: Sept4/ARTS KO MEFs (per the earlier reading)", "T2 sequence (P02340 whole entry)": "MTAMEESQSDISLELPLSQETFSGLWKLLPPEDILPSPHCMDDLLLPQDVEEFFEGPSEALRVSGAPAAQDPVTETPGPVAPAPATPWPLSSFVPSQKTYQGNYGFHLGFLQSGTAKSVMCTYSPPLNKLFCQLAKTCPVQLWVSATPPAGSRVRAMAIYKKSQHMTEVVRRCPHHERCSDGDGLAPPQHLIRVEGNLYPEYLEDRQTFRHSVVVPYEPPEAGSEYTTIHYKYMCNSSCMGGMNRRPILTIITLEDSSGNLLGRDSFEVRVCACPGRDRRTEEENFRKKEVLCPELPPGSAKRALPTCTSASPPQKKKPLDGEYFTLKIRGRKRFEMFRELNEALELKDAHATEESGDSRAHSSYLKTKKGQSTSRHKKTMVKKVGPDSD", "assay": "Co-immuno-precipitation between ARTS and p53 in Sept4/ARTS KO MEFs", "type": "cell-based", "settings": "B3 for 24 hrs", "procedure": "Cells were harvested and lysed with radioimmunoprecipitation assay (RIPA) buffer (Tris-HCl pH 7.5 50 mM, NaCl 150 mM, NP-40 (Igepal) 0.3%) containing protease inhibitor cocktail (Complete, Roche) and 100 μg/ml PMSF. Antibodies were used at 5 μg per […] protein and incubated overnight, rotating at 4° C. The next day, agarose beads conjugated to protein A/G (Santa Cruz Biotechnology) were added for 4 h with rotation at 4° C. Samples were centrifuged at 4° C. for 5 min and washed five times with RIPA buffer. Proteins were eluted from beads by 10 min of boiling in sample buffer and separated on 12% SDS-PAGE gel, followed by Western blot analysis."}, "[7]": {"biological_target": "T3, binding between XIAP and p53 (Homo sapiens, UniProt P98170)", "T3 construct": "expressed in transfected cells; host or cells: WT MEFs", "T3 sequence (P98170 whole entry, the tested form may be a part)": "as the sequence (P98170 whole entry) above", "assay": "BiFC assay in WT MEFs (VN-p53 and VC-XIAP)", "type": "cell-based", "settings": "20 μM B3 for 18 hours", "text": "The split-Venus BiFC system was used to evaluate close proximity indicating possible direct binding between pairs of proteins. The proteins were fused either to the N-terminal part of the VenusYFP (yellow fluorescence protein) (VN) or the C-terminal domain (VC). All Venus fragments were fused to the C-terminal sequences of these proteins. The Jun and bFos pair was used as a positive control (p.c.), and the Jun and bFosdeltaZTP pair was used as a negative control (n.c.). A vector encoding dsRed was used as a transfection efficiency marker."}, "[8]": {"biological_target": "T4, p53 ubiquitylation by XIAP (Homo sapiens, UniProt P98170)", "T4 construct": "host or cells: bacteria (GST-XIAP)", "T4 sequence (P98170 whole entry)": "as above", "assay": "In vitro ubiquitylation assay, recombinant GST-XIAP and p53", "type": "biochemical", "settings": "20 and 40 μM B3, 1 hour at 37C", "procedure": "Bacterially expressed His-ARTS was purified using fast protein liquid chromatography (FPLC), and bacterially expressed GST-XIAP was purified using glutathione beads. P53 recombinant protein was purchased from R&D (cat #SP-450). Recombinant p53 and GST-XIAP were incubated. E1, UbcH5b, ubiquitin (Ub), and the appropriate E3 in conjugation buffer (20 mM Tris-Cl [pH 7.6], 100 mM KCl, 5 mM MgCl2, and 1 mM DTT) containing 2 mM ATP at 37C for 1 hour."}},
  "data": [
    {"smiles": "Cn1ccnc1C(=O)c1ccc(NC(=O)C(=O)N[C@H](CO)Cc2ccccc2)cc1", "note": "[B3, (S)-N1-(1-hydroxy-3-phenylpropan-2-yl)-N2-(4-(1-methyl-1H-imidazole-2-carbonyl)phenyl)oxalamide]", "values": [
      {"measurement": "direct binding to XIAP", "setting": "[1]", "result": "binds with high affinity"},
      {"measurement": "XIAP levels", "setting": "[2]; 20 uM, 24 hrs", "result": "decrease"},
      {"measurement": "cleavage of early apoptotic marker Caspase 9", "setting": "[2]; 20 uM, 24 hrs", "result": "increase"},
      {"measurement": "MDM2 levels", "setting": "[2]; 10, 20, 30 μM B3, 24 hours", "result": "reduction"},
      {"measurement": "XIAP levels", "setting": "[2]; 10, 20, 30 μM B3, 24 hours", "result": "reduction"},
      {"measurement": "cPARP or caspase3", "setting": "[2]; 10, 20, 30 μM B3, 24 hours", "result": "elevation"},
      {"measurement": "p53 levels", "setting": "[2]; 10, 20, 30 μM B3, 24 hours", "result": "elevation"},
      {"measurement": "p53 Ubiquitylation levels", "setting": "[3]", "result": "no effect"},
      {"measurement": "Ubiquitylation of p53", "setting": "[4]", "result": "inhibit"},
      {"measurement": "Kd", "setting": "[5]", "result": 36, "unit": "µM"},
      {"measurement": "binding between ARTS and p53", "setting": "[6]", "result": "reduces"},
      {"measurement": "binding between VN-p53 and VC-XIAP", "setting": "[7]", "result": "disrupted"},
      {"measurement": "p53 Ubiquitylation by XIAP", "setting": "[8]", "result": "dose-dependent inhibition"}
    ]}
  ]
}
